Measurements published in the NIST ThermoML archive (doi:10.1016/j.jct.2018.06.007).

Assays:
[1] = 101 kPa, Liquid; for speed of sound: Frequency=2 MHz, Linear variable-path acoustic interferometer; for mass density: Pycnometric method
[2] = xn = mol fraction of the nth substance listed; conditions: 101 kPa, Liquid; for speed of sound: Frequency=2 MHz, Linear variable-path acoustic interferometer; for mass density: Pycnometric method

CCN(CC)CCO [(diethylamino)ethanol]
[1]
Conditions	mass density [kg/m3]	speed of sound [m/s]
293.15 K	884.37	1366.5
303.15 K	874.93	1327.3
313.15 K	865.62	1285

CCN(CC)CCO [(diethylamino)ethanol] + CCCCO
[2]
Conditions	mass density, 293.15 K [kg/m3]	mass density, 303.15 K [kg/m3]	mass density, 313.15 K [kg/m3]	speed of sound, 293.15 K [m/s]	speed of sound, 303.15 K [m/s]	speed of sound, 313.15 K [m/s]
x1 = 0.0902	820.03	812.47	805.16	1276.3	1239.8	1204.1
x1 = 0.1941	831.16	823.43	815.92	1291.2	1254.8	1218.7
x1 = 0.2938	840.82	832.89	825.11	1304.3	1267.7	1231
x1 = 0.4045	850.42	842.23	834.18	1317.8	1281	1243.5
x1 = 0.5081	858.32	849.91	841.63	1329.2	1292.2	1254
x1 = 0.6088	865.03	856.45	847.98	1339.3	1302.1	1263.3
x1 = 0.7129	871.14	862.42	853.78	1348.6	1311.2	1271.9
x1 = 0.8131	876.29	867.39	858.66	1356.4	1318.7	1278.8
x1 = 0.9037	880.46	871.28	862.4	1362.2	1324	1283.2
x1 = 1	884.37	874.93	865.62	1366.5	1327.3	1285
